Reference: the NIST ThermoML archive (doi:10.1016/j.tca.2014.09.011)
“And” between values parts separate entries of the source, which are not always exact repeats. Equal values may be shown once.

Settings: Liquid, Rate of evaporation

CCCCO [butan-1-ol]
Settings | vapor or sublimation pressure
301.02 K | 1.09 kPa
305.59 K | 1.46 kPa
310.16 K | 1.92 kPa
310.26 K | 1.96 kPa
310.29 K | 1.9 kPa and 1.91 kPa
314.75 K | 2.67 kPa
314.76 K | 2.6 kPa and 2.5 kPa
314.81 K | 2.61 kPa
321.34 K | 4.15 kPa and 4.19 kPa
322.07 K | 4.33 kPa
322.58 K | 4.48 kPa
322.69 K | 4.52 kPa
323.09 K | 4.54 kPa
323.14 K | 4.54 kPa
323.5 K | 4.62 kPa
323.67 K | 4.69 kPa
323.78 K | 4.75 kPa
323.9 K | 4.74 kPa
324.18 K | 4.79 kPa
324.28 K | 4.85 kPa
324.57 K | 4.91 kPa
324.59 K | 4.87 kPa
324.8 K | 4.95 kPa
324.91 K | 4.98 kPa
333.51 K | 8.09 kPa
334.32 K | 8.38 kPa
341.78 K | 12.79 kPa
343.2 K | 13.52 kPa
343.36 K | 13.71 kPa
343.39 K | 14.44 kPa
352.7 K | 21.03 kPa
360.58 K | 32.09 kPa

CCO [ethanol]
Settings | vapor or sublimation pressure [kPa]
301.1 K | 9.07
305.47 K | 10.94
305.54 K | 11.69
305.63 K | 11.08
305.68 K | 11.85

CCCCCCCCO [octan-1-ol]
Settings | vapor or sublimation pressure [kPa]
319.82 K | 0.06
324.46 K | 0.09
333.93 K | 0.21
343.23 K | 0.38
343.39 K | 0.4
348.15 K | 0.54
362.32 K | 1.36
390.95 K | 6.14

Cc1ccccc1 [toluene]
Settings | vapor or sublimation pressure [kPa]
300.89 K | 4.47
305.64 K | 5.17
305.68 K | 5.23
324.21 K | 13.4
